Assay results published in PMC7159882, “Polyunsaturated fatty acid analogues differentially affect cardiac NaV, CaV, and KV channels through unique mechanisms” (eLife, 2020).

Target: T1, Kv7.1/KCNE1 (Homo sapiens, UniProt P51787)
T1 construct: cRNA encoding Kv7.1 (UniProt: P51787), KCNE1 (UniProt: P15382.1); expressed in transfected cells; host or cells: Xenopus laevis oocytes (cRNA injection, Kv7.1:KCNE1 3:1 by weight)
Test: Two-electrode voltage clamp of Kv7.1/KCNE1 expressed in Xenopus oocytes
Type: cell-based
Set-up: Fitted slope factor of conductance vs voltage relationship: unit of the concentration uncertain
Conditions: for IKs I/I0: relative current at 0 mV
Experimental: Molecular Biology cRNA encoding Kv7.1 (UniProt: P51787), KCNE1 (UniProt: P15382.1), Nav1.5 (UniProt: Q14524.1), Nav β1 (UniProt: […]), Nav β3 (UniProt: […]), Cav1.2 (GenBank: CAA84346), Cav β3 (Uniprot: P54286), Cav β2 (Uniprot: P54288), and Cav α2δ (Uniprot: P13806) were transcribed using the mMessage mMachine T7 kit (Ambion). 50 ng of cRNA was injected into defolliculated Xenopus laevis oocytes (Ecocyte, Austin, TX): For Kv7.1/KCNE1 channel expression, we injected a 3:1, weight:weight (Kv7.1:KCNE1) cRNA ratio. For Nav1.5 channel expression, we injected a 2:1, weight:weight (Nav1.5:β1) cRNA ratio. For Cav1.2 channel expression, we injected a 2:1:1, weight:weight (Cav1.2:β3:α2δ) cRNA ratio. The exact stoichiometry for channel macromolecular complexes, including α -subunits and auxiliary subunits is not clear for many ion channels. For example, there have been multiple reported stoichiometries for Kv7.1:KCNE1 determined in heterologous expression systems with some groups reporting flexible stoichiometry of 4 Kv7.1: 1–4 KCNE1 and others reporting a fixed stoichiometry of 4 Kv7.1: 2 KCNE1 ([Murray et al., 2016]; [Nakajo et al., 2010]). The ratios of cRNA of α- and auxiliary subunits that we injected in Xenopus laevis oocytes are such that all α-subunits are assumed to be in complex with auxiliary subunits. This allows a more homogenous population of ion channels with auxiliary subunits. One caveat to expressing ion channels as macromolecular complexes is that there are many other auxiliary subunits that could associate with the channel α -subunit that are present in cardiomyocytes and have the potential to alter PUFA-induced effects, but that are not being co-expressed in our experiments. In this work, we are co-expressing some of the auxiliary subunits that have been primarily reported to associate with their respective α -subunits in cardiomyocytes. Following cRNA injection, cells were incubated for 72–96 hr in standard ND96 solution (96 mM NaCl, 2 mM KCl, 1 mM MgCl2, 1.8 mM CaCl2, 5 mM HEPES; pH = 7.5) containing 1 mM pyruvate at 16°C prior to electrophysiological recordings.
Xenopus laevis oocytes were recorded in the two-electrode voltage clamp (TEVC) configuration. Recording pipettes were filled with 3 M KCl. The recording chamber was filled with ND96 (96 mM NaCl, 2 mM KCl, 1 mM MgCl2, 1.8 mM CaCl2, 5 mM HEPES; pH 7.5). For Cav1.2/β3/α2δ channel recordings, Xenopus oocytes were injected with 50 nl of 100 mM EGTA and incubated at 10°C for 30 min prior to electrophysiological recordings in order to sequester cytosolic calcium. In addition, Cav1.2/β3/α2δ channel recordings were done in Ca^2+-free solutions, using Ba^2+ as the charge carrier, to prevent calcium-dependent inactivation of Cav1.2/β3/α2δ channels. Calcium-dependent inactivation was not studied in this work, due to the presence of large calcium-activated chloride currents present in Xenopus laevis oocytes. PUFAs were obtained from Cayman Chemical (Ann Arbor, MI.) or synthesized in house (Linköping, Sweden) through methods previously described ([Bohannon et al., 2020]) and kept at −20 °C as 100 mM stock solutions in ethanol. […] PUFAs were perfused into the recording chamber using the Rainin Dynamax Peristaltic Pump (Model RP-1) (Rainin Instrument Co., Oakland, CA. USA).
Electrophysiological recordings were obtained using Clampex 10.3 software (Axon, pClamp, Molecular Devices). To measure Kv7.1/KCNE1 currents we apply PUFAs as the membrane potential is stepped every 30 s from −80 mV to 0 mV for 5 s before stepping to −40 mV and back to −80 mV to ensure that the PUFA effects on the current at 0 mV reached steady state. A voltage-step protocol was used to measure the current vs. voltage (I-V) relationship before PUFA application and after the PUFA effects had reached steady state for each concentration of PUFA. Cells were held at −80 mV followed by a hyperpolarizing prepulse to −140 mV. […]

| Structure (SMILES) | Fitted slope factor of conductance vs voltage relationship (0.2 μM) [mV] | Gmax/Gmax0 (0.2 μM) | ΔV0.5 (voltage dependence of activation) (0.2 μM) [mV] | IKs I/I0 (0.2 μM) | Fitted slope factor of conductance vs voltage relationship (0.7 μM) [mV] | Gmax/Gmax0 (0.7 μM) | ΔV0.5 (voltage dependence of activation) (0.7 μM) [mV] | IKs I/I0 (0.7 μM) | Fitted slope factor of conductance vs voltage relationship (2 μM) [mV] | Gmax/Gmax0 (2 μM) | ΔV0.5 (voltage dependence of activation) (2 μM) [mV] | IKs I/I0 (2 μM) | Fitted slope factor of conductance vs voltage relationship (7 μM) [mV] | Gmax/Gmax0 (7 μM) | ΔV0.5 (voltage dependence of activation) (7 μM) | Fitted slope factor of conductance vs voltage relationship (20 μM) [mV] | Gmax/Gmax0 (20 μM) | ΔV0.5 (voltage dependence of activation) (20 μM) [mV] | IKs I/I0 (20 μM) | IKs I/I0 (7 μM) | also measured |
| --- | --- | --- | --- | --- | --- | --- | --- | --- | --- | --- | --- | --- | --- | --- | --- | --- | --- | --- | --- | --- | --- |
| CC/C=C\C/C=C\C/C=C\C/C=C\C/C=C\C/C=C\CCC(=O)NCC(=O)O [DHA-glycine, docosahexaenoyl glycine] | 16.5 ± 0.49 | 1.3 ± 0.1 | -2.0 ± 0.8 | 1.3 ± 0.1 | 16.6 ± 0.45 | 1.5 ± 0.1 | -3.0 ± 1.0 | 1.7 ± 0.2 | 16.6 ± 0.52 | 1.7 ± 0.2 | -5.8 ± 0.9 | 2.4 ± 0.5 | 17.0 ± 0.56 | 1.9 ± 0.2 | −10.5 ± 1.0 mV | 17.9 ± 0.68 | 2.0 ± 0.2 | -16.5 ± 1.3 | 5.0 ± 1.3 | – | – |
| CCCCC/C=C\C/C=C\CCCCCCCC(=O)NCC(=O)O [Lin-glycine] | 18.2 ± 0.89 | 1.2 ± 0.1 | -2.7 ± 1.5 | 1.2± 0.1 | 19.0 ± 1.0 | 1.3 ± 0.1 | -3.3 ± 3.0 | 1.4 ± 0.1 | 19.2 ± 1.2 | 1.8 ± 0.2 | -10.0 ± 2.8 | 2.5 ± 0.4 | 20.6 ± 1.5 | 2.3 ± 0.2 | −23.8 ± 1.6 mV | 22.1 ± 1.7 | 2.4 ± 0.2 | -26.4 ± 4.4 | 5.3 ± 0.5 | 5.1 ± 0.4 (p=0.002) | ΔV0.5 (voltage dependence of activation) (7 μM, listed as lin-glycine): -23.8 ± 1.6 mV; IKs I/I0 (7 μM, listed as lin-glycine): 5.1 ± 0.4 |
| CCCCC/C=C\C/C=C\CCCCCCCC(=O)NCCS(=O)(=O)O [Lin-taurine, Linoleoyl taurine] | 17.7 ± 0.76 | 1.0 ± 0.03 | 1.3 ± 0.7 | 1.0 ± 0.1 | 17.7 ± 0.77 | 1.1 ± 0.02 | -0.3 ± 1.4 | 1.2 ± 0.2 | 18.6 ± 1.0 | 1.7 ± 0.4 | -12.3 ± 3.1 | 3.2 ± 0.9 | 18.1 ± 1.0 | 1.9 ± 0.6 | −39.9 ± 3.6 mV | 12.2 ± 1.8 | 2.0 ± 0.6 | -73.1 ± 2.6 | 10.4 ± 4.0 | 7.7 ± 2.9 (p=0.14) | ΔV0.5 (voltage dependence of activation) (7 μM, listed as lin-taurine): -39.9 ± 3.6 mV; IKs I/I0 (7 μM, listed as lin-taurine): 7.7 ± 2.9 |
| CCCCC/C=C\C/C=C\C/C=C\C/C=C\CCCC(=O)NCCS(=O)(=O)O [N-AT, N-arachidonoyl taurine] | 16.9 ± 0.65 | 1.0 ± 0.1 | 0.7 ± 0.8 | 1.0 ± 0.02 | 17.2 ± 0.62 | 0.9 ± 0.02 | 0.9 ± 1.1 | 1.0 ± 0.03 | 17.4 ± 0.60 | 0.9 ± 0.02 | 0.6 ± 1.1 | 1.0 ± 0.04 | 18.2 ± 0.59 | 0.9 ± 0.03 | –1.8 ± 2.6 mV | 18.7 ± 0.73 | 0.9 ± 0.02 | -8.5 ± 4.9 | 1.3 ± 0.2 | – | concentrations at which the effects on IKs appear (I/I0 at 0 mV): > 20 µM |
| CCCCC/C=C\C/C=C\CC/C=C\CCCC(=O)NCC(=O)O [Pin-glycine] | 17.9 ± 0.83 | 1.0 ± 0.1 | 3.9 ± 0.6 | 0.7 ± 0.1 | 17.8 ± 0.84 | 1.2 ± 0.1 | 2.3 ± 0.2 | 1.0 ± 0.1 | 17.9 ± 0.91 | 1.3 ± 0.1 | 2.3 ± 0.7 | 1.1 ± 0.1 | 18.7 ± 1.1 | 1.7 ± 0.1 | – | 20.9 ± 1.4 | 1.7 ± 0.1 | -19.9 ± 2.4 | 3.6 ± 0.2 | – | ΔV0.5 (voltage dependence of activation) (7 μM, listed as pin-glycine): -8.5 ± 1.7 mV; IKs I/I0 (7 μM, listed as pin-glycine): 2.4 ± 0.2 |
| CCCCC/C=C\C/C=C\CC/C=C\CCCC(=O)NCCS(=O)(=O)O [Pin-taurine] | 17.9 ± 0.82 | 1.2 ± 0.1 | 2.6 ± 2.4 | 1.1 ± 0.1 | 17.7 ± 0.82 | 1.3 ± 0.2 | 2.3 ± 3.5 | 1.4 ± 0.4 | 18.3 ± 0.96 | 2.0 ± 0.4 | -4.9 ± 3.4 | 3.0 ± 0.4 | 18.8 ± 1.0 | – | −23.8 ± 2.7 mV | 16.8 ± 0.73 | 1.9 ± 0.3 | -51.6 ± 3.5 | 9.0 ± 1.4 | 6.8 ± 1.0 (p=0.01) | Gmax/Gmax0 (7 μM, listed as pin-taurine): 2.2 ± 0.4; ΔV0.5 (voltage dependence of activation) (7 μM, listed as pin-taurine): -23.8 ± 2.7 mV; IKs I/I0 (7 μM, listed as pin-taurine): 6.8 ± 1.0 |
